Experimental data: PubChem BioAssay AID200 (DTP/NCI, 2004)
Several values for one entry are separate records, joined by “and”; a condition that tells them apart may be missing. Equal values may be shown once. Inconclusive results and toxic doses are left out.

System: B6C3F1 mice, B16 melanoma ip, median survival T/C
Assay: NCI In Vivo Anticancer Drug Screen. Data for tumor model B16 Melanoma (intraperitoneal) in B6C3F1 mice
Details: endpoint: median survival time, schedule: Q01DX009 (ip), higher = longer survival
Procedure, shortened: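 Mice bearing transplanted tumor were dosed with compound or vehicle, and survival was recorded. Activity is expressed as the treated-group measurement (T) divided by the vehicle control measurement (C).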

[1] = dose: 50.0 mg/kg/injection, vehicle: saline
[2] = dose: 100.0 mg/kg/injection, vehicle: saline
[3] = dose: 50.0 mg/kg/injection, vehicle: saline with Tween-80
[4] = dose: 100.0 mg/kg/injection, vehicle: saline with Tween-80
[5] = dose: 200.0 mg/kg/injection, vehicle: saline with Tween-80
[6] = dose: 3.12 mg/kg/injection, vehicle: saline with Tween-80
[7] = dose: 3.12 mg/kg/injection, vehicle: saline
[8] = dose: 6.25 mg/kg/injection, vehicle: saline with Tween-80
[9] = dose: 6.25 mg/kg/injection, vehicle: saline
[10] = dose: 12.5 mg/kg/injection, vehicle: saline with Tween-80
[11] = dose: 12.5 mg/kg/injection, vehicle: saline
[12] = dose: 25.0 mg/kg/injection, vehicle: saline with Tween-80
[13] = dose: 25.0 mg/kg/injection, vehicle: saline
[14] = dose: 25.0 mg/kg/injection, vehicle: Klucel (hydroxypropylcellulose) (HPC)
[15] = dose: 50.0 mg/kg/injection, vehicle: Klucel (hydroxypropylcellulose) (HPC)
[16] = dose: 100.0 mg/kg/injection, vehicle: Klucel (hydroxypropylcellulose) (HPC)
[17] = dose: 200.0 mg/kg/injection, vehicle: Klucel (hydroxypropylcellulose) (HPC)
[18] = dose: 400.0 mg/kg/injection, vehicle: Klucel (hydroxypropylcellulose) (HPC)

Q: For `COC(C(=O)C(O)C(C)O)C1CC2C=C3C=C(OC4CC(OC5CC(O)C(OC)C(C)O5)C(OC(C)=O)C(C)O4)C(C)C(=O)C3=C(O)C2=C(O)C1OC1CC(OC2CC(OC3CC(C)(O)C(O)C(C)O3)C(O)C(C)O2)C(O)C(C)O1` (stereo not drawn), which T/C (dose: 0.25 mg/kg/injection, vehicle: saline with Tween-80) is on record?
A: Its T/C is 109 % of control.

Q: What about the T/C (dose: 0.5 mg/kg/injection, vehicle: saline with Tween-80) of the same compound?
A: The T/C was 120 % of control.

Q: And the T/C (dose: 1.0 mg/kg/injection, vehicle: saline with Tween-80)?
A: The T/C was 120 % of control.

Q: And the T/C (dose: 4.0 mg/kg/injection, vehicle: saline with Tween-80)?
A: The T/C was 178 % of control.

Q: What about the T/C (dose: 8.0 mg/kg/injection, vehicle: saline with Tween-80) of the same compound?
A: The T/C was 178 % of control.

Q: For `CCCCCCCCCCC(OC(C)=O)C1CCC(C2CCC(C(O)CCCCCCCCCCCCC3C=C(C)OC3=O)O2)O1` (stereo not drawn), which T/C (dose: 0.25 mg/kg/injection, vehicle: water) is on record?
A: Its T/C is 97 % of control.

Q: And the T/C (dose: 0.5 mg/kg/injection, vehicle: water)?
A: The T/C was 95 % of control.

Q: What about the T/C (dose: 1.0 mg/kg/injection, vehicle: water) of the same compound?
A: The T/C was 93 % of control.

Q: What about the T/C (dose: 2.0 mg/kg/injection, vehicle: water) of the same compound?
A: The T/C was 100 % of control.

Q: What about the T/C (dose: 4.0 mg/kg/injection, vehicle: water) of the same compound?
A: Its T/C is 100 % of control.

Q: Which T/C (dose: 3.0 mg/kg/injection, vehicle: Klucel (hydroxypropylcellulose) (HPC)) does the source give for `CC1=C(CC/C(C)=C/CCC2=CCC(C3=CC(=O)OC3O)OC2O)C(C)(C)CCC1` (stereo not drawn) here?
A: Its T/C is 90 % of control.

Q: What about the T/C (dose: 6.0 mg/kg/injection, vehicle: Klucel (hydroxypropylcellulose) (HPC)) of the same compound?
A: Its T/C is 90 % of control.

Q: Which results are given for `CCCCCCCCCCCCCCCCCC1=NC(C)CC(C)(C)O1` (stereo not drawn)?
A: T/C [1]: 96 % of control; T/C [2]: 94 % of control; T/C (dose: 200.0 mg/kg/injection, vehicle: saline): 94 % of control

Q: Which results are given for `CC(C)(C)OC(=O)NCCCCC(NC(=O)OC(C)(C)C)C(=O)O` (stereo not drawn)?
A: T/C [3]: 97 % of control; T/C [4]: 104 % of control; T/C [5]: 95 % of control

Q: What does the source list for `CN(C)N=Nc1ccc(Cl)c2ncccc12`?
A: T/C (dose: 3.13 mg/kg/injection, vehicle: other): 115 % of control; T/C (dose: 6.25 mg/kg/injection, vehicle: other): 106 % of control; T/C (dose: 12.5 mg/kg/injection, vehicle: other): 109 % of control; T/C (dose: 25.0 mg/kg/injection, vehicle: other): 117 % of control; T/C (dose: 50.0 mg/kg/injection, vehicle: other): 114 % of control

Q: Which results are given for `[I][Hg][CH2]C1COC([CH2][Hg][I])CO1` (stereo not drawn)?
A: T/C [6]: 93 % of control; T/C [7]: 97 % of control; T/C [8]: 109 % of control; T/C [9]: 101 % of control; T/C [10]: 113 % of control; T/C [11]: 87 % of control; T/C [12]: 119 % of control; T/C [13]: 100 % of control; T/C [3]: 106 % of control; T/C [1]: 99 % of control; T/C [2]: 96 % of control

Q: How did the T/C (dose: 3.12 mg/kg/injection, vehicle: water) turn out when `CCN(Cc1ccc(Cl)c(Cl)c1)c1ccc2nc(N)nc(N)c2c1C` was run?
A: The T/C was 112 % of control and 123 % of control.

Q: What about the T/C (dose: 3.13 mg/kg/injection, vehicle: distilled water + Tween-80) of the same compound?
A: The T/C was 120 % of control.

Q: What about the T/C (dose: 6.25 mg/kg/injection, vehicle: water) of the same compound?
A: Its T/C is 124 % of control.

Q: And the T/C (dose: 12.5 mg/kg/injection, vehicle: water)?
A: Its T/C is 92 % of control.

Q: What about the T/C (dose: 25.0 mg/kg/injection, vehicle: water) of the same compound?
A: The T/C was 150 % of control.

Q: What does the source list for `O=C(O)C(O)C(O)C1[O][Sb][O]C1C(=O)O` (stereo not drawn)?
A: T/C [9]: 96 % of control; T/C [11]: 97 % of control; T/C [13]: 104 % of control; T/C [1]: 107 % of control

Q: For `OCCO`, which T/C (dose: 0.25 % in 0.5 ml injection vol, vehicle: water) is on record?
A: Its T/C is 97 % of control.

Q: What about the T/C (dose: 0.5 % in 0.5 ml injection vol, vehicle: water) of the same compound?
A: The T/C was 96 % of control.

Q: `Nc1ccc2ccc(NS(=O)(=O)N3CCCCC3)cc2c1` was tested. Which T/C [12] did it give?
A: The T/C was 110 % of control.

Q: What about the T/C [3] of the same compound?
A: Its T/C is 98 % of control.

Q: What about the T/C [4] of the same compound?
A: The T/C was 111 % of control.

Q: What about the T/C [5] of the same compound?
A: The T/C was 107 % of control.

Q: For `O=C(Nc1ccccc1C(=O)O)c1cc([N+](=O)[O-])cc([N+](=O)[O-])c1`, which T/C [10] is on record?
A: The T/C was 92 % of control.

Q: What about the T/C [12] of the same compound?
A: The T/C was 100 % of control.

Q: And the T/C [3]?
A: The T/C was 97 % of control.

Q: And the T/C [4]?
A: The T/C was 96 % of control.

Q: How did the T/C (dose: 12.5 mg/kg/injection, vehicle: Klucel (hydroxypropylcellulose) (HPC)) turn out when `OCC1OC(n2cnc3c(NO)ncnc32)C(O)C1O` (stereo not drawn) was run?
A: Its T/C is 101 % of control and 105 % of control.

Q: What about the T/C [14] of the same compound?
A: Its T/C is 93 % of control and 100 % of control.

Q: And the T/C [15]?
A: The T/C was 96 % of control and 98 % of control.

Q: What about the T/C [16] of the same compound?
A: The T/C was 97 % of control and 101 % of control.

Q: And the T/C [17]?
A: The T/C was 91 % of control and 95 % of control.

Q: What about the T/C [18] of the same compound?
A: The T/C was 86 % of control and 87 % of control.

Q: Which results are given for `CS(=O)(=O)OCCN(CCOS(C)(=O)=O)c1ccc(C=O)cc1`?
A: T/C [6]: 151 % of control; T/C [8]: 162 % of control; T/C [10]: 186 % of control

Q: With `CC(=O)O[C@H]1C(=O)[C@@]2(C)C(C(OC(=O)c3ccccc3)[C@]3(O)CC(OC(=O)[C@H](OC(=O)CCC(=O)O)C(NC(=O)c4ccccc4)c4ccccc4)C(C)=C1C3(C)C)C1(OC(C)=O)COC1C[C@@H]2OC(=O)CCC(=O)O` (stereo partly drawn) as the compound, how does the T/C (dose: 2.75 mg/kg/injection, vehicle: sodium bicarbonate) read?
A: Its T/C is 109 % of control.

Q: What about the T/C (dose: 2.75 mg/kg/injection, vehicle: water) of the same compound?
A: The T/C was 120 % of control.

Q: What about the T/C (dose: 5.5 mg/kg/injection, vehicle: sodium bicarbonate) of the same compound?
A: The T/C was 113 % of control.

Q: What about the T/C (dose: 5.5 mg/kg/injection, vehicle: water) of the same compound?
A: Its T/C is 114 % of control.

Q: What about the T/C (dose: 11.0 mg/kg/injection, vehicle: sodium bicarbonate) of the same compound?
A: The T/C was 124 % of control.

Q: And the T/C (dose: 22.0 mg/kg/injection, vehicle: sodium bicarbonate)?
A: Its T/C is 105 % of control.

Q: And the T/C (dose: 22.0 mg/kg/injection, vehicle: water)?
A: Its T/C is 109 % of control.

Q: And the T/C (dose: 44.0 mg/kg/injection, vehicle: sodium bicarbonate)?
A: Its T/C is 114 % of control.

Q: And the T/C (dose: 44.0 mg/kg/injection, vehicle: water)?
A: The T/C was 166 % of control.

Q: With `CC(C)(C)OC(=O)NCCCCC(NC(=O)OCC1c2ccccc2-c2ccccc21)C(=O)O` (stereo not drawn) as the compound, how does the T/C [14] read?
A: Its T/C is 100 % of control.

Q: What about the T/C [15] of the same compound?
A: The T/C was 95 % of control.

Q: Which T/C [10] does the source give for `O=CC=O` here?
A: The T/C was 114 % of control.

Q: And the T/C [12]?
A: Its T/C is 110 % of control.

Q: What about the T/C [3] of the same compound?
A: The T/C was 102 % of control and 108 % of control.

Q: And the T/C [4]?
A: Its T/C is 114 % of control and 106 % of control.

Q: What about the T/C [5] of the same compound?
A: The T/C was 120 % of control and 108 % of control.

Q: `O=C(Oc1cc(Cl)ccc1Cl)c1ccccc1` was tested. Which T/C [3] did it give?
A: Its T/C is 96 % of control.

Q: What about the T/C [4] of the same compound?
A: The T/C was 97 % of control.

Q: What about the T/C [5] of the same compound?
A: Its T/C is 91 % of control.

Q: What about the T/C (dose: 400.0 mg/kg/injection, vehicle: saline with Tween-80) of the same compound?
A: The T/C was 87 % of control.

Q: What does the source list for `O=c1[nH]c2c(ccc3cnccc32)c2c1CCC2`?
A: T/C [7]: 97 % of control; T/C [9]: 113 % of control; T/C [11]: 119 % of control

Q: Which T/C [16] does the source give for `CC(NC(=O)OCC1c2ccccc2-c2ccccc21)C(=O)O` (stereo not drawn) here?
A: Its T/C is 104 % of control.

Q: And the T/C [17]?
A: Its T/C is 101 % of control.

Q: And the T/C [18]?
A: The T/C was 87 % of control.

Q: Which T/C (dose: 1.25 mg/kg/injection, vehicle: Klucel (hydroxypropylcellulose) (HPC)) does the source give for `CCCCCCCC1C(=O)OC2CC3C(C)=CC(=O)C(O)C3(C)C3C4(O)OCC23C1C(C)C4O` (stereo not drawn) here?
A: The T/C was 156 % of control.

Q: And the T/C (dose: 2.5 mg/kg/injection, vehicle: Klucel (hydroxypropylcellulose) (HPC))?
A: The T/C was 110 % of control and 91 % of control.

Q: And the T/C (dose: 5.0 mg/kg/injection, vehicle: Klucel (hydroxypropylcellulose) (HPC))?
A: Its T/C is 118 % of control and 97 % of control.

Q: What about the T/C (dose: 10.0 mg/kg/injection, vehicle: Klucel (hydroxypropylcellulose) (HPC)) of the same compound?
A: Its T/C is 114 % of control and 250 % of control.

Q: What about the T/C (dose: 20.0 mg/kg/injection, vehicle: Klucel (hydroxypropylcellulose) (HPC)) of the same compound?
A: Its T/C is 162 % of control.
